According to patent US7531320B2, “Modulation of β-catenin/TCF-activated transcription” (priority 2003, dated 2009):

Test system: caspase-3/7 in CCD18Co cells
Assay: Caspase-3/7 activity assay, normal colonocytes CCD18Co
Assay type: cell-based, human
Details: 25 μM, 24 hours
Procedure: FIG. 6. • A. COMPOUND 1 arrests cells in G1. FACS analysis was performed on SW480 (lower panel) and HCT116 (upper panel) cells treated for 24 hours with either COMPOUND 1 (25 μM) (right) or control (0.5% DMSO (left). 5.5×10^6 cells were fixed and stained with propidium iodide (PI). G0/G1, S, and G2/M are indicated by arrows. • B. COMPOUND 1 selectively activates caspases in colon carcinoma cell lines. SW480 and HCT116 (left graph) cells (10^5) along with the normal colonocytes, CCD18Co (right graph) were treated with either control (0.5% DMSO) or COMPOUND 1 (25 μM). 24 hours post treatment, cells were lysed and the caspase-3/7 enzymatic activities were measured. Relative fluorescence units (RFU) were calculated by subtracting the unit values of the blank (control, without cells) from the treated samples (COMPOUND 1 or control) and plotted.
SW480, HCT116, and CCD18Co cells were plated at 10^5 cells per well (96-well plates) for 24 hours prior to treatment. 25 μM of COMPOUND 1 or control (0.5% DMSO) was added to each well. 24 hours post treatment, cells were lysed and caspase activity was measured using a caspase-3/7 activity kit (Apo-One Homogeneous caspase-3/7 assay, #G77905, Promega). Relative fluorescence units (RFU) were obtained by subtracting the unit values of the blank (control, without cells) from the experimental measured values. […]

O=C1C(Cc2ccc(O)cc2)N2C(=O)CCN(C(=O)NCc3ccccc3)C2CN1Cc1cccc2ccccc12 (stereo not shown) [COMPOUND 1]
Caspase activation: not in normal colonocytes
